Laboratory results as given in the supplement of paper PMC11061612.

Columns and labels:
Test in all cases: combination Emax (second highest fraction inhibited in the dose matrix, 72 h); higher = more inhibition; extreme values may be limits of the assay
[1] = tested on: HCT-15 (Colorectal Carcinoma)
In short: (§1)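 Cell lines in DMEM/F12 or RPMI with 10% FBS were plated in 1536-well plates, held 24 hours at 37°C, 5% CO2, then given two-drug dose matrices for 72 hours (DMSO typically 0.2%). Viability was read by CellTiter-Glo 2.0 luminescence and scaled as inhibition from 0 (vehicle wells) to 1 (blank wells). Combination Emax is the second-highest inhibition in the matrix; Bliss excess is observed combination effect minus expected EA + EB − EA·EB, EA and EB being single-agent effects.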

[2] = tested on: FADU (Head and Neck Carcinoma)
In short: as §1

[3] = tested on: SHP-77 (Small Cell Lung Carcinoma)
In short: as §1

WM793B (Melanoma) = tested on: WM793B (Melanoma)
In short: as §1

[4] = tested on: NCI-H23 (Lung Adenocarcinoma)
In short: as §1

A2058 (Melanoma) = tested on: A2058 (Melanoma)
In short: as §1

[5] = tested on: COLO-680N (Esophageal Squamous Cell Carcinoma)
In short: as §1

[6] = tested on: HSC-39 (Gastric Carcinoma)
In short: as §1

[7] = tested on: LB996-RCC (Kidney Carcinoma)
In short: as §1

[8] = tested on: NCI-H2342 (Lung Adenocarcinoma)
In short: as §1

[9] = tested on: RERF-LC-Sq1 (Squamous Cell Lung Carcinoma)
In short: as §1

[10] = tested on: PSN1 (Pancreatic Carcinoma)
In short: as §1

[11] = tested on: REH (B-Lymphoblastic Leukemia)
In short: as §1

[12] = tested on: RCM-1 (Colorectal Carcinoma)
In short: as §1

[13] = tested on: RKN (Other Solid Carcinomas)
In short: as §1

[14] = tested on: SU-DHL-10 (B-Cell Non-Hodgkin's Lymphoma)
In short: as §1

WM278 (Melanoma) = tested on: WM278 (Melanoma)
In short: as §1

[15] = tested on: RERF-GC-1B (Gastric Carcinoma)
In short: as §1

[16] = tested on: MKN45 (Gastric Carcinoma)
In short: as §1

| SMILES | combination Emax [1] | combination Emax [2] | combination Emax [3] | combination Emax (WM793B (Melanoma)) | combination Emax [4] | combination Emax (A2058 (Melanoma)) | combination Emax [5] | combination Emax [6] | combination Emax [7] | combination Emax [8] | combination Emax [9] | combination Emax [10] | combination Emax [11] | combination Emax [12] | combination Emax [13] | combination Emax [14] | combination Emax (WM278 (Melanoma)) | combination Emax [15] | combination Emax [16] |
| --- | --- | --- | --- | --- | --- | --- | --- | --- | --- | --- | --- | --- | --- | --- | --- | --- | --- | --- | --- |
| CCN(CCO)CCCOc1ccc2c(Nc3cc(CC(=O)Nc4cccc(F)c4)[nH]n3)ncnc2c1 [AZD2811] + C[C@@H]1COCCN1C2=NC(=NC(=C2)C3(CC3)[S@](=N)(=O)C)C4=C5C=CNC5=NC=C4 [AZD6738] (first compound max 1 µM, 7x7, partner max 10 µM) | 0.805 | 0.654 | 0.496 | 0.769 | 0.785 | 0.246 | 0.309 | 1 | 0.602 | 0.213 | 0.791 | 0.397 | 0.787 | 0.828 | 0.206 | 0.985 | 0.332 | 0.439 | 0.732 |
| CCN(CCO)CCCOc1ccc2c(Nc3cc(CC(=O)Nc4cccc(F)c4)[nH]n3)ncnc2c1 [AZD2811] + O=C(c1cc(Cc2n[nH]c(=O)c3ccccc23)ccc1F)N1CCN(C(=O)C2CC2)CC1 [Olaparib] (first compound max 1 µM, 7x7, partner max 10 µM) | 0.12 | 0.299 | 0.185 | 0.359 | 0.235 | 0.218 | 0.196 | 0.985 | 0.315 | 0.166 | 0.219 | 0.251 | 0.487 | 0.247 | 0.228 | 0.745 | 0.166 | 0.316 | 0.28 |
| C[C@@H]1COCCN1c1cc(C2([S@](C)(=N)=O)CC2)nc(-c2ccnc3[nH]ccc23)n1 [AZD6738] + O=C(c1cc(Cc2n[nH]c(=O)c3ccccc23)ccc1F)N1CCN(C(=O)C2CC2)CC1 [Olaparib] (first compound max 10 µM, 7x7, partner max 10 µM) | 0.832 | 0.775 | 0.754 | 0.822 | 0.753 | 0.205 | 0.392 | 1 | 0.675 | 0.208 | 0.75 | 0.5 | 0.917 | 0.623 | 0.228 | 0.944 | 0.233 | 0.442 | 0.763 |
| Cc1cc2ncnn2cc1Nc1ncc2c(n1)n(C1CCOCC1)c(=O)n2C [AZD7648] + C=CCn1c(=O)c2cnc(Nc3ccc(N4CCN(C)CC4)cc3)nc2n1-c1cccc(C(C)(C)O)n1 [AZD1775] (first compound max 10 µM, partner max 1 µM) | 0.736 | 0.546 | 0.432 | 0.584 | 0.786 | 0.24 | 0.353 | 0.936 | 0.762 | 0.255 | 0.672 | 0.557 | 0.848 | 0.596 | 0.248 | 0.978 | 0.254 | 0.788 | 0.804 |
| Cc1cc2ncnn2cc1Nc1ncc2c(n1)n(C1CCOCC1)c(=O)n2C [AZD7648] + CCN(CCO)CCCOc1ccc2c(Nc3cc(CC(=O)Nc4cccc(F)c4)[nH]n3)ncnc2c1 [AZD2811] (first compound max 10 µM, 7x7, partner max 1 µM) | 0.455 | 0.263 | 0.258 | 0.411 | 0.228 | 0.247 | 0.236 | 0.939 | 0.363 | 0.324 | 0.261 | 0.397 | 0.51 | 0.316 | 0.211 | 0.899 | 0.157 | 0.281 | 0.446 |
| Cc1cc2ncnn2cc1Nc1ncc2c(n1)n(C1CCOCC1)c(=O)n2C [AZD7648] + CN(C)CCCOc1ccc(-c2ccc3ncc4c(c3c2)n(C2CCOCC2)c(=O)n4C)cn1 [AZD0156] (first compound max 10 µM, 7x7, partner max 1 µM) | 0.267 | 0.111 | 0.223 | 0.361 | 0.103 | 0.182 | 0.188 | 0.215 | 0.339 | 0.249 | 0.197 | 0.38 | 0.258 | 0.201 | 0.194 | 0.302 | 0.188 | 0.29 | 0.428 |
| Cc1cc2ncnn2cc1Nc1ncc2c(n1)n(C1CCOCC1)c(=O)n2C [AZD7648] + C[C@@H]1COCCN1C2=NC(=NC(=C2)C3(CC3)[S@](=N)(=O)C)C4=C5C=CNC5=NC=C4 [AZD6738] (first compound max 10 µM, 7x7, partner max 10 µM) | 0.835 | 0.695 | 0.493 | 0.818 | 0.603 | 0.271 | 0.265 | 1 | 0.668 | 0.24 | 0.804 | 0.418 | 0.771 | 0.855 | 0.225 | 0.878 | 0.33 | 0.457 | 0.793 |
| Cc1cc2ncnn2cc1Nc1ncc2c(n1)n(C1CCOCC1)c(=O)n2C [AZD7648] + O=C(c1cc(Cc2n[nH]c(=O)c3ccccc23)ccc1F)N1CCN(C(=O)C2CC2)CC1 [Olaparib] (first compound max 10 µM, 7x7, partner max 10 µM) | 0.501 | 0.237 | 0.233 | 0.341 | 0.213 | 0.0679 | 0.101 | 0.267 | 0.423 | 0.12 | 0.314 | 0.31 | 0.187 | 0.125 | 0.189 | 0.16 | 0.0954 | 0.228 | 0.264 |
| COc1cccc2c1C(=O)c1c(O)c3c(c(O)c1C2=O)C[C@@](O)(C(=O)CO)C[C@@H]3O[C@H]1C[C@H](N)[C@H](O)[C@H](C)O1 [Doxorubicin] + Cc1cc2ncnn2cc1Nc1ncc2c(n1)n(C1CCOCC1)c(=O)n2C [AZD7648] (first compound max 1 µM, 7x7, partner max 10 µM) | 0.742 | 0.928 | 0.562 | 0.801 | 0.588 | 0.583 | 0.67 | 0.867 | 0.796 | 0.349 | 0.627 | 0.788 | 1 | 0.605 | 0.693 | 0.975 | 0.631 | 0.779 | 0.821 |
| COc1cccc(OCCCN)c1-c1cc(Nc2cnc(C#N)cn2)n[nH]1 [Prexasertib] + C=CCn1c(=O)c2cnc(Nc3ccc(N4CCN(C)CC4)cc3)nc2n1-c1cccc(C(C)(C)O)n1 [AZD1775] (first compound max 1 µM, partner max 1 µM) | 0.972 | 0.914 | 0.949 | 0.938 | 0.918 | 0.519 | 0.505 | 1 | 0.877 | 0.415 | 0.906 | 0.781 | 1 | 0.822 | 0.833 | 1 | 0.605 | 0.887 | 0.865 |
| COc1cccc(OCCCN)c1-c1cc(Nc2cnc(C#N)cn2)n[nH]1 [Prexasertib] + CN(C)CCCOc1ccc(-c2ccc3ncc4c(c3c2)n(C2CCOCC2)c(=O)n4C)cn1 [AZD0156] (first compound max 1 µM, 7x7, partner max 1 µM) | 0.92 | 0.808 | 0.829 | 0.903 | 0.882 | 0.391 | 0.414 | 1 | 0.712 | 0.345 | 0.864 | 0.444 | 0.994 | 0.818 | 0.67 | 0.999 | 0.574 | 0.616 | 0.836 |
| COc1cccc(OCCCN)c1-c1cc(Nc2cnc(C#N)cn2)n[nH]1 [Prexasertib] + C[C@@H]1COCCN1C2=NC(=NC(=C2)C3(CC3)[S@](=N)(=O)C)C4=C5C=CNC5=NC=C4 [AZD6738] (first compound max 1 µM, 7x7, partner max 10 µM) | 0.95 | 0.918 | 0.836 | 0.907 | 0.884 | 0.436 | 0.416 | 1 | 0.786 | 0.294 | 0.899 | 0.536 | 1 | 0.862 | 0.577 | 1 | 0.569 | 0.543 | 0.822 |
| COc1cccc(OCCCN)c1-c1cc(Nc2cnc(C#N)cn2)n[nH]1 [Prexasertib] + Cc1cc2ncnn2cc1Nc1ncc2c(n1)n(C1CCOCC1)c(=O)n2C [AZD7648] (first compound max 1 µM, 7x7, partner max 10 µM) | 0.935 | 0.851 | 0.862 | 0.866 | 0.889 | 0.444 | 0.37 | 1 | 0.776 | 0.309 | 0.855 | 0.461 | 0.992 | 0.796 | 0.658 | 0.999 | 0.596 | 0.552 | 0.811 |
| COc1cccc(OCCCN)c1-c1cc(Nc2cnc(C#N)cn2)n[nH]1 [Prexasertib] + O=C(c1cc(Cc2n[nH]c(=O)c3ccccc23)ccc1F)N1CCN(C(=O)C2CC2)CC1 [Olaparib] (first compound max 1 µM, 7x7, partner max 10 µM) | 0.883 | 0.897 | 0.819 | 0.873 | 0.879 | 0.508 | 0.342 | 1 | 0.759 | 0.302 | 0.833 | 0.456 | 0.987 | 0.596 | 0.678 | 1 | 0.627 | 0.552 | 0.854 |
